# Measured values from US20030017568A1, “Smooth muscle myosin phosphatase associated kinase” (priority 2001, published 2003).
# What was measured:
# [1] = test system: ZIP-like-kinase (SMPP-1M associated kinase, MYPT-kinase); test: In vitro kinase assay against the Thr697 peptide, native ZIP-like-kinase (MYPT-kinase) compared with ROK; assay type: biochemical, cow; details: levels needed versus ROK
# Experimental: Kinase and phosphatase assays. Kinase assays included 10 μL of enzyme diluted in 25 mM Hepes, pH 7.4, 1 mM DTT, and 100 μM Thr^697 peptide. Reactions were started with addition of 20 μL Mg^2+ ATP (5 mM MgCl2 and 0.1 mM ATP (5000 cpm/nmol) and carried out at 25° C. Reactions were terminated after 20 min with the addition of 100 μL of 20 mM H3PO4. Aliquots (100 μL) of the reaction mixture were spotted on to P81 paper and washed four times with 20 mM H3PO4. The P81 paper was placed into 1.5 mL Eppendorf tubes and ^32P incorporation was determined by scintillation counting. Phosphatase assays were carried out as described (Shirazi et al, J. Biol. Chem. 269:31598-31606 (1994)).
# Purification of the SMPP-1M associated kinase. The SMPP-1M associated kinase was isolated from cow bladders following initial steps outlined for purification of SMPP-1M from pig bladder (Shirazi et al, J. Biol. Chem. 269:31598-31606 (1994)). Following extraction of the myofibrillar pellet, the extract was diluted with 2 volumes of buffer C (20 mM Tris, pH 7.5, 25 mM MgCl2, and 1 mM DTT with protease inhibitors), clarified by centrifugation (100,000 g, 45 min) and applied to a 5.0×10-cm column of ethylenediamine γ-linked ATP Sepharose equilibrated in buffer C. […] The purity of SMPP-1M kinase was assessed by SDS-PAGE and silver staining.
# ZIP-like-kinase = ZIP-like-kinase activity and phosphorylation in treated rabbit bladder smooth muscle (immunoprecipitates); assay type: cell-based
# ROK = details: hypertensive mice; cited from earlier work
# MYPT1 = MYPT1 phosphorylation in 32P-labeled intact smooth muscle (rabbit bladder); assay type: cell-based; details: carbachol stimulation
smiles,measurement,setting,value
C[C@@H](N)[C@H]1CC[C@H](C(=O)Nc2ccncc2)CC1 [Y-27632],Inhibition of native ZIP-like-kinase (MYPT-kinase): levels relative to those for ROK,[1],200 fold
same,Inhibition of ZIP-like-kinase activity,"ZIP-like-kinase; 10 μM, carbachol and calyculin A treated bladder",significant inhibition
same,Blood pressure,ROK,decreased blood pressure
COC[C@@H]([C@H](O)[C@H](O)C(=O)NCC[C@H](C)c1nc(/C=C/C[C@@H]2O[C@]3(C[C@@H](O)[C@@H]2C)O[C@H]([C@H](C[C@H](O)[C@H](C)[C@H](O)[C@H](C)/C=C(C)/C(C)=C/C=C/C(C)=C\C#N)OC)[C@H](OP(=O)(O)O)C3(C)C)co1)N(C)C [calyculin A],Reduction of ZIP-like-kinase activation in the absence of calyculin A,ZIP-like-kinase; carbachol-treated bladder without calyculin A,about 50%
C[N+](C)(C)CCOC(N)=O [carbachol],MYPT1 phosphorylation state (four phosphopeptides; major site Thr697),MYPT1,increased
same,ZIP-like-kinase phosphorylation and activation,ZIP-like-kinase,phosphorylated and activated
